Assay results: ChEMBL document CHEMBL1201862, “PubChem BioAssay data set” (2004)
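Tested at 5 concentrations; 48 h exposure; 96-well plates; endpoints linearly interpolated, else capped at highest concentration. The concentration for 50% growth inhibition is given as GI50.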 Calls of active or inactive are those of the source. Rule as the data show it: active = GI50 up to about 1.1 µM and inactive = higher.

Legend:
Experiment in all cases: inhibition of tumour cell growth, NCI panel, 48 h
[1] = test system: ACHN
[2] = test system: HOP-92
[3] = test system: NCI-H522
[4] = test system: SW-620
[5] = test system: SK-MEL-2
[6] = test system: T47D
[7] = test system: HCC 2998
[8] = test system: NCI-H23
[9] = test system: SF-295
[10] = test system: UACC-257
[11] = test system: K562
[12] = test system: SR
[13] = test system: UO-31
[14] = test system: SF-268
[15] = test system: SK-MEL-5
[16] = test system: A549
[17] = test system: RPMI-8226
[18] = test system: Hs-578T
[19] = test system: MOLT-4
[20] = test system: SK-MEL-28
[21] = test system: EKVX
[22] = test system: PC-3
[23] = test system: MCF7
[24] = test system: Malme-3M
[25] = test system: SNB-75
[26] = test system: TK-10
[27] = test system: HCT-116
[28] = test system: NCI/ADR-RES
[29] = test system: MDA-N
[30] = test system: HT-29
[31] = test system: MDA-MB-435
[32] = test system: SK-OV-3
[33] = test system: OVCAR-4
[34] = test system: NCI-H226
[35] = test system: U-251
[36] = test system: RXF 393
[37] = test system: UACC-62
[38] = test system: IGROV-1
[39] = test system: HCT-15
[40] = test system: COLO 205
[41] = test system: BT-549
[42] = test system: CAKI-1
[43] = test system: KM12
[44] = test system: SF-539
[45] = test system: A498
[46] = test system: M14
[47] = test system: 786-0
[48] = test system: SN12C
[49] = test system: OVCAR-8
[50] = test system: DU-145
[51] = test system: HL-60
[52] = test system: OVCAR-3
[53] = test system: NCI-H460
[54] = test system: HOP-62
[55] = test system: LOX IMVI
[56] = test system: MDA-MB-231
[57] = test system: CCRF-CEM
[58] = test system: OVCAR-5
[59] = test system: SNB-19

Q: Which GI50 [1] does the source give for NC(=O)NN=C1Cc2ccccc2C1 here?
A: > 100 µM (inactive)

Q: And the GI50 [2]?
A: > 100 µM (inactive)

Q: What about the GI50 [3] of the same compound?
A: > 100 µM (inactive)

Q: And the GI50 [4]?
A: > 100 µM (inactive)

Q: And the GI50 [5]?
A: > 100 µM (inactive)

Q: What about the GI50 [6] of the same compound?
A: > 100 µM (inactive)

Q: What about the GI50 [7] of the same compound?
A: > 100 µM (inactive)

Q: What about the GI50 [8] of the same compound?
A: > 100 µM (inactive)

Q: And the GI50 [9]?
A: > 100 µM (inactive)

Q: What about the GI50 [10] of the same compound?
A: > 100 µM (inactive)

Q: What about the GI50 [11] of the same compound?
A: > 100 µM (inactive)

Q: And the GI50 [12]?
A: > 100 µM (inactive)

Q: And the GI50 [13]?
A: > 100 µM (inactive)

Q: And the GI50 [14]?
A: > 100 µM (inactive)

Q: And the GI50 [15]?
A: > 100 µM (inactive)

Q: And the GI50 [16]?
A: > 100 µM (inactive)

Q: What about the GI50 [17] of the same compound?
A: > 100 µM (inactive)

Q: And the GI50 [18]?
A: > 100 µM (inactive)

Q: What about the GI50 [19] of the same compound?
A: > 100 µM (inactive)

Q: What about the GI50 [20] of the same compound?
A: > 100 µM (inactive)

Q: What about the GI50 [21] of the same compound?
A: > 100 µM (inactive)

Q: And the GI50 [22]?
A: > 100 µM (inactive)

Q: And the GI50 [23]?
A: > 100 µM (inactive)

Q: What about the GI50 [24] of the same compound?
A: > 100 µM (inactive)

Q: What about the GI50 [25] of the same compound?
A: > 100 µM (inactive)

Q: And the GI50 [26]?
A: > 100 µM (inactive)

Q: What about the GI50 [27] of the same compound?
A: > 100 µM (inactive)

Q: And the GI50 [28]?
A: > 100 µM (inactive)

Q: What about the GI50 [29] of the same compound?
A: > 100 µM (inactive)

Q: What about the GI50 [30] of the same compound?
A: > 100 µM (inactive)

Q: And the GI50 [31]?
A: > 100 µM (inactive)

Q: What about the GI50 [32] of the same compound?
A: > 100 µM (inactive)

Q: What about the GI50 [33] of the same compound?
A: > 100 µM (inactive)

Q: What about the GI50 [34] of the same compound?
A: > 100 µM (inactive)

Q: What about the GI50 [35] of the same compound?
A: > 100 µM (inactive)

Q: What about the GI50 [36] of the same compound?
A: > 100 µM (inactive)

Q: What about the GI50 [37] of the same compound?
A: > 100 µM (inactive)

Q: And the GI50 [38]?
A: > 100 µM (inactive)

Q: And the GI50 [39]?
A: > 100 µM

Q: And the GI50 [40]?
A: > 100 µM (inactive)

Q: And the GI50 [41]?
A: > 100 µM (inactive)

Q: What about the GI50 [42] of the same compound?
A: > 100 µM (inactive)

Q: And the GI50 [43]?
A: > 100 µM (inactive)

Q: What about the GI50 [44] of the same compound?
A: > 100 µM (inactive)

Q: And the GI50 [45]?
A: > 100 µM (inactive)

Q: What about the GI50 [46] of the same compound?
A: > 100 µM (inactive)

Q: And the GI50 [47]?
A: > 100 µM (inactive)

Q: And the GI50 [48]?
A: > 100 µM (inactive)

Q: What about the GI50 [49] of the same compound?
A: > 100 µM (inactive)

Q: And the GI50 [50]?
A: > 100 µM (inactive)

Q: What about the GI50 [51] of the same compound?
A: > 100 µM (inactive)

Q: And the GI50 [52]?
A: > 100 µM (inactive)

Q: What about the GI50 [53] of the same compound?
A: > 100 µM (inactive)

Q: What about the GI50 [54] of the same compound?
A: > 100 µM (inactive)

Q: And the GI50 [55]?
A: > 100 µM (inactive)

Q: What about the GI50 [56] of the same compound?
A: > 100 µM (inactive)

Q: What about the GI50 [57] of the same compound?
A: > 100 µM (inactive)

Q: And the GI50 [58]?
A: > 100 µM (inactive)

Q: What about the GI50 [59] of the same compound?
A: > 100 µM (inactive)

Q: Which GI50 [1] does the source give for O=C1NC(=O)C(F)(n2cc(F)c(=O)[nH]c2=O)C(O)N1 (stereo not drawn) here?
A: > 10 µM (inactive)

Q: And the GI50 [2]?
A: > 10 µM (inactive)

Q: And the GI50 [3]?
A: > 10 µM (inactive)

Q: And the GI50 [4]?
A: > 10 µM (inactive)

Q: And the GI50 [5]?
A: > 10 µM (inactive)

Q: And the GI50 [6]?
A: > 10 µM (inactive)

Q: And the GI50 [7]?
A: > 10 µM (inactive)

Q: And the GI50 [8]?
A: > 10 µM (inactive)

Q: And the GI50 [9]?
A: > 10 µM (inactive)

Q: And the GI50 [10]?
A: > 10 µM (inactive)

Q: And the GI50 [11]?
A: > 10 µM (inactive)

Q: And the GI50 [12]?
A: > 10 µM (inactive)

Q: What about the GI50 [13] of the same compound?
A: > 10 µM (inactive)

Q: What about the GI50 [14] of the same compound?
A: > 10 µM (inactive)

Q: What about the GI50 [15] of the same compound?
A: > 10 µM (inactive)

Q: What about the GI50 [16] of the same compound?
A: > 10 µM (inactive)

Q: And the GI50 [17]?
A: > 10 µM (inactive)

Q: What about the GI50 [18] of the same compound?
A: > 10 µM (inactive)

Q: And the GI50 [19]?
A: > 10 µM (inactive)

Q: What about the GI50 [20] of the same compound?
A: > 10 µM (inactive)

Q: What about the GI50 [21] of the same compound?
A: > 10 µM (inactive)

Q: And the GI50 [22]?
A: > 10 µM (inactive)

Q: What about the GI50 [23] of the same compound?
A: > 10 µM (inactive)

Q: And the GI50 [24]?
A: > 10 µM (inactive)

Q: What about the GI50 [25] of the same compound?
A: > 10 µM (inactive)

Q: And the GI50 [26]?
A: > 10 µM (inactive)

Q: What about the GI50 [27] of the same compound?
A: > 10 µM (inactive)

Q: What about the GI50 [28] of the same compound?
A: > 10 µM (inactive)

Q: And the GI50 [29]?
A: > 10 µM (inactive)

Q: What about the GI50 [30] of the same compound?
A: > 10 µM (inactive)

Q: And the GI50 [31]?
A: > 10 µM (inactive)

Q: What about the GI50 [32] of the same compound?
A: > 10 µM (inactive)

Q: What about the GI50 [33] of the same compound?
A: > 10 µM (inactive)

Q: What about the GI50 [34] of the same compound?
A: > 10 µM (inactive)

Q: And the GI50 [35]?
A: > 10 µM (inactive)

Q: And the GI50 [36]?
A: > 10 µM (inactive)

Q: What about the GI50 [37] of the same compound?
A: > 10 µM (inactive)

Q: And the GI50 [38]?
A: > 10 µM (inactive)

Q: What about the GI50 [39] of the same compound?
A: > 10 µM

Q: What about the GI50 [40] of the same compound?
A: > 10 µM (inactive)

Q: And the GI50 [41]?
A: > 10 µM (inactive)

Q: And the GI50 [42]?
A: > 10 µM (inactive)

Q: What about the GI50 [43] of the same compound?
A: > 10 µM (inactive)

Q: What about the GI50 [44] of the same compound?
A: > 10 µM (inactive)

Q: What about the GI50 [45] of the same compound?
A: > 10 µM (inactive)

Q: And the GI50 [46]?
A: > 10 µM (inactive)

Q: What about the GI50 [47] of the same compound?
A: > 10 µM (inactive)

Q: And the GI50 [48]?
A: > 10 µM (inactive)

Q: What about the GI50 [49] of the same compound?
A: > 10 µM (inactive)

Q: And the GI50 [50]?
A: > 10 µM (inactive)

Q: And the GI50 [51]?
A: > 10 µM (inactive)

Q: What about the GI50 [52] of the same compound?
A: > 10 µM (inactive)

Q: And the GI50 [53]?
A: > 10 µM (inactive)

Q: And the GI50 [54]?
A: > 10 µM (inactive)

Q: And the GI50 [55]?
A: > 10 µM (inactive)

Q: And the GI50 [56]?
A: > 10 µM (inactive)

Q: And the GI50 [57]?
A: > 10 µM (inactive)

Q: And the GI50 [58]?
A: > 10 µM (inactive)

Q: And the GI50 [59]?
A: > 10 µM (inactive)
